We go through 8 molecules from ChEMBL document CHEMBL1201862, “PubChem BioAssay data set” (2004).

The AC50 is the midpoint of the concentration-response curve, whichever way the signal moves. In general, EC50 refers to the concentration giving half of the maximal effect. The IC50 is the midpoint of a concentration-inhibition curve.

Assay [1] concerns the target Acyl-homoserine lactone acylase PvdQ (Pseudomonas aeruginosa (strain LESB58), UniProt Q9I194). The assay can be described thus: P. aeruginosa PvdQ acylase inhibitors, dose response, biochemical, fluorescence, plate reader and imaging, cherry-picks (AID 493231).
A short description of assay [2]: A549 cell cytotoxicity, dose response, cytotoxicity control, plate reader, cherry-pick, antagonist series (AID 743412). It counts as functional, cell-based.
A short description of assay [3]: HepG2 cell cytotoxicity, dose response, cytotoxicity control, plate reader, cherry-pick, antagonist series (AID 743416). Format: functional, cell-based.
The nature of assay [4]: LGR2 antagonists, dose response, cell-based, HEK293, CRE-luciferase reporter, cherry pick, set 2 (AID 743343).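 Also: transfected cells were stimulated with diluted bursicon conditioned medium after compound addition.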 It counts as functional. On the technique in general: A reporter such as luciferase makes a cellular process visible.
The nature of assay [5]: MC4R antagonists, dose response, counter-screen for LGR2 antagonist project, cell-based, plate reader, cherry pick (AID 743444).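 Also: transfected HEK 293 cells stimulated with alpha-MSH peptide; potency of inhibitors of the alpha-MSH evoked signal.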 Format: functional.
Assay [6] is described as follows: HEK293 cell cytotoxicity, dose response, cytotoxicity control, plate reader, cherry-picked samples (AID 743446). It counts as functional, cell-based.
The target of another assay is Cytochrome P450 2C9 (Homo sapiens, UniProt P11712). Particulars: Potency.
In a further assay the target is Wee1-like protein kinase (Homo sapiens, UniProt P30291). The assay can be described thus: G2/M cell cycle arrest in HeLa, late-stage follow-up, mechanism study for Wee1 degradation inhibitor project, FACS, panel member Wee1 Degradation (AID 2088).
Assay [7] concerns the target G2/mitotic-specific cyclin-B1 (Homo sapiens, UniProt P14635). The experiment in a line: G2/M cell cycle arrest in HeLa, late-stage follow-up, mechanism study for Wee1 degradation inhibitor project, FACS, panel member Cyclin B Degradation (AID 2088).
Assay [8] addresses Lysosomal acid glucosylceramidase (Homo sapiens, UniProt P04062). The assay can be described thus: Dose response cell-based high throughput screening assay to identify enhancers of beta-glucosidase activity. [Related pubchem assays: 784 ]. Format: functional.
Assay [9] has as its target Mitogen-activated protein kinase 10 (Homo sapiens, UniProt P53779). The experiment in a line: Dose response biochemical screening assay for inhibitors of c-Jun N-Terminal Kinase 3 (JNK3). [Related pubchem assays: 746 ].
The next assay deals with Tumor necrosis factor (Homo sapiens, UniProt P01375). The assay can be described thus: TNFa-triggered NF-kB activation inhibitors, SAR follow-up, cell-based, revised (AID 2337). It counts as functional.
The next assay deals with Interleukin-8 (Homo sapiens, UniProt P10145). The experiment in a line: SAR analysis of tumor necrosis factor alpha (TNF-alpha) induced IL-8 secretion in MCF-7/NOD1 cells. [Related pubchem assays (depositor defined):AID1575, AID2250, AID2260]. It counts as functional, cell-based.
For assay [10], the system named is HEK293. The experiment in a line: SAR analysis of compounds that are cytotoxic to HEK293 - Set 3. [Related pubchem assays (depositor defined):AID1575, AID1578, AID1848, AID1849, AID2001, AID2333, AID2334, AID2335, AID2337, AID2469]. It counts as functional, cell-based. As to conditions: Homo sapiens.
Assay [11] relates to HEK293. The assay can be described thus: cells. Particulars: Homo sapiens.
Assay [12] is described as follows: polyadenylation inhibitors in yeast reporter, dose response, luminescence, S. cerevisiae SKY197-pL101 (AID 2525). It counts as functional, cell-based.
Assay [13] addresses Scavenger receptor class B member 1 (Mus musculus, UniProt Q61009). The assay can be described thus: inhibitors of SR-BI mediated HDL lipid uptake, dose response, ldlA[mSR-BI] cells, fluorescence, cherry pick (AID 493194).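 Also: cellular uptake of fluorescent DiI-labeled HDL measured as cell fluorescence.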 It counts as functional, cell-based.
Assay [14] has as its system Streptococcus sp. 'group A'. The assay can be described thus: growth inhibition of control SK(-) GAS strain, dose response, counter-screen for streptokinase expression inhibitor project, luminescence, kanamycin, BacTiterGlo, confirmation (AID 1900). Format: functional, organism-based. (Counterscreens check selectivity or assay interference.)
For a further assay, the target named is T1, Streptokinase A (Streptococcus pyogenes serotype M1, UniProt P10520).
T1 sequence (P10520 whole entry): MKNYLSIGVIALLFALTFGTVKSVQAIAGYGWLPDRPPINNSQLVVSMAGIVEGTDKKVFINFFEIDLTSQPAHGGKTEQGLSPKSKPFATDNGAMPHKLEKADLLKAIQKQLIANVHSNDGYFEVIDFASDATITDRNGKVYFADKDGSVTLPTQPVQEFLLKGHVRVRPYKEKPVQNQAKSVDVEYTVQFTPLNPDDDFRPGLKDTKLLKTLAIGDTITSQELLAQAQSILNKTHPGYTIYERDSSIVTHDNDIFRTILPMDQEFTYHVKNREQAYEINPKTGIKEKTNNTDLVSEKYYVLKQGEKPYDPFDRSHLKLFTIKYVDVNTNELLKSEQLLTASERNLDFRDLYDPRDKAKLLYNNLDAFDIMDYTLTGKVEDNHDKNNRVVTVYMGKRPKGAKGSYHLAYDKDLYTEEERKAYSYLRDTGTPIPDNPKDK
The assay can be described thus: S. pyogenes streptokinase expression inhibitors, potency, dose response, plasminogen activation absorbance, OD405 (AID 1914).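 Also: secreted streptokinase activity via plasminogen activation per viability signal from cell pellet.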 Format: functional, Streptococcus pyogenes M1 GAS.

Assay [15] is described as follows: HIV-1 Env-mediated cell fusion inhibitors, dose response, CCR5-tropic Env (AID 2279). Format: functional.
The target of assay [16] is Induced myeloid leukemia cell differentiation protein Mcl-1 (Homo sapiens, UniProt Q07820). Format: functional.
For a further assay, the system named is Streptococcus. The assay can be described thus: Group A Streptococcus viability loss, dose response, counter-screen for streptokinase expression inhibitor project, luminescence, BacTiterGlo (AID 1915).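 Also: potency for reduction of bacterial viability or growth.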 It counts as functional, organism-based.

Molecules are shown by their SMILES. Activity calls are given as the source filed them.

On to `CCOc1ccc(-c2cn3ccccc3n2)cc1`, for which the AC50 in assay [1] is 92.1 µM (active); in assay [2], > 52 µM (inactive); in assay [3], > 52 µM (inactive); in [4] it was 5.05 µM (active); in assay [5], 4.5 µM (active); in assay [6] it was > 52 µM (inactive).
Turning to `CC(C)CCN1CCc2nc(COc3ccccc3)c3c(c2C1)COC(C)C3` (configuration not stated), the concentration at half-maximal activity (AC50) at Cytochrome P450 2C9 is 6.31 µM (inconclusive).
In the case of `CCc1ccc(NC(=O)CCCOc2cc(=O)n(C)c3ccccc23)cc1`, the EC50 (on Wee1-like protein kinase; in [7]) was > 49.7 µM (inactive) each time.
As for `Cc1ccnc(Nc2nc(-c3c(C)nc4sccn34)cs2)c1`, the EC50 in assay [8] was > 50 µM (not active). Further, the IC50 in [9] is given as > 93.1 µM (not active).
On to `Cc1ccc(S(=O)(=O)n2c(N)nc3cc(C)c(C)cc32)cc1`, for which the IC50 on Tumor necrosis factor is > 20 µM (inactive); at Interleukin-8, > 5 µM (inactive); with HEK293 [10] it was > 20 µM (inactive); with HEK293 [11] it was > 20 µM (inactive).
In the case of `CCN1/C(=C/C=C/c2sc3ccccc3[n+]2CC)Sc2ccccc21` [ALAZANINE], the concentration for a half-maximal effect (EC50) in assay [12] was 243 µM (active).
For `Cc1ccc2oc(-c3cccc(NC(=O)c4cc(-n5cnnc5)ccc4Cl)c3)nc2c1`, the AC50 in assay [13] was 8.18 µM (active).
For `CC1(c2ccccc2)CC(C)(C)N2C(=O)/C(=C3\SC(=S)NC3=O)c3cccc1c32` (configuration not stated), the EC50 in assay [14] was 0.435 µM (active); on Streptokinase A it was > 150 µM (not active); in the assay with Streptococcus, 3.08 µM (active). The concentration for half-maximal inhibition (IC50) in [15] is 9.92 µM (active); in assay [16], 1.18 µM (active).
